Experimental data as given in patent US8952024B2, “Herbicidal pyrimidone derivatives” (E I du Pont de Nemours and Company, priority 2009, dated 2015).
Read-outs that look alike come from different tables or passages of the source.

How the values were obtained:
Assay in all cases: Test B pre-/postemergence plant response
Type in all cases: in vivo
[1] = tested on: yellow nutsedge (Cyperus esculentus); conditions: for pest or weed control at 31 g/ha: 31 g ai/ha; for pest or weed control at 125 g/ha: 125 g ai/ha
Procedure, shortened: (§1)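 Greenhouse herbicide screen. Pre- and postemergence (1- to 4-leaf) spray of compound in solvent/surfactant mixture; loam–sand soil for pre, peat/vermiculite medium for post. Visual control rating 0–100 at 13 to 15 days after treatment.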

[2] = tested on: ragweed (common ragweed, Ambrosia elatior); conditions: for pest or weed control at 31 g/ha: 31 g ai/ha; for pest or weed control at 125 g/ha: 125 g ai/ha
Procedure, shortened: as §1

[3] = tested on: johnsongrass (Sorghum halepense); conditions: for pest or weed control at 31 g/ha: 31 g ai/ha; for pest or weed control at 125 g/ha: 125 g ai/ha
Procedure, shortened: as §1

[4] = tested on: Surinam grass (Brachiaria decumbens); conditions: for pest or weed control at 31 g/ha: 31 g ai/ha; for pest or weed control at 125 g/ha: 125 g ai/ha
Procedure, shortened: as §1

[5] = tested on: blackgrass (Alopecurus myosuroides); conditions: for pest or weed control at 31 g/ha: 31 g ai/ha; for pest or weed control at 125 g/ha: 125 g ai/ha
Procedure, shortened: as §1

[6] = tested on: Italian ryegrass (Lolium multiflorum); conditions: for pest or weed control at 31 g/ha: 31 g ai/ha; for pest or weed control at 125 g/ha: 125 g ai/ha
Procedure, shortened: as §1

[7] = tested on: large crabgrass (Digitaria sanguinalis); conditions: for pest or weed control at 31 g/ha: 31 g ai/ha; for pest or weed control at 125 g/ha: 125 g ai/ha
Procedure, shortened: as §1

soybean (Glycine max) = tested on: soybean (Glycine max)
Procedure, shortened: as §1

[8] = tested on: bermudagrass (Cynodon dactylon); conditions: postemergence, 100 is complete control
Procedure, shortened: as §1

[9] = 62 g ai/ha, postemergence, 0 is no effect, 100 is complete control, 13 to 15 days
[10] = Preemergence, 250 g ai/ha, 0 to 100 scale

For `COCCCn1c(-c2ccccc2)ncc(C(=O)C2=C(O)CCCC2=O)c1=O` [Compound 81, 5-[(2-hydroxy-6-oxo-cyclohexen-1-yl)carbonyl]-3-(3-methoxypropyl)-2-phenyl-4(3H)-pyrimidinone], the “Nutsedge, Yellow plant response rating (0 to 100 scale)” value [1, 9] was 80, the pest or weed control at 31 g/ha ([1]; Cyperus, post-emergence, postemergence, scale 0 to 100, 0 is no effect, 100 is complete control, read-out: Plant response rating, Nutsedge, Yellow) was 65% and the pest or weed control at 125 g/ha ([1]; Cyperus, post-emergence, Postemergence, visual rating after 13 to 15 days, scale 0 (no effect) to 100 (complete control)) was 80%. For the same molecule, the pest or weed control at 250 g/ha ([1]; Cyperus, post-emergence, Postemergence, 250 g ai/ha, scale 0 to 100 (0 no effect, 100 complete control), read-out: Plant response rating, Nutsedge, Yellow) was 80%, the pest or weed control at 31 g/ha ([1]; Cyperus, pre-emergence, Preemergence, scale 0 to 100 (0 no effect, 100 complete control), read-out: Plant response rating, Nutsedge, Yellow) was 10% and the pest or weed control at 62 g/ha ([1]; Cyperus, pre-emergence, Preemergence, 62 g ai/ha, scale 0 to 100 (0 no effect, 100 complete control), read-out: Plant response rating, Nutsedge, Yellow) was 75%. For the same molecule, the pest or weed control at 125 g/ha ([1]; Cyperus, pre-emergence, Preemergence, scale 0 to 100, 0 no effect, 100 complete control, read-out: Plant response rating, Nutsedge, Yellow) was 95%, the “Nutsedge, Yellow plant response rating” value [1, 10] was 95 and the “Ragweed plant response rating (0 to 100 scale)” value [2, 9] was 80. For the same molecule, the pest or weed control at 31 g/ha ([2]; Ambrosia artemisiifolia, post-emergence, 360 h, postemergence, scale 0 to 100, 0 is no effect, 100 is complete control, read-out: Plant response rating, Ragweed) was 75%, the pest or weed control at 125 g/ha ([2]; Ambrosia artemisiifolia, post-emergence, 360 h, Postemergence, visual rating after 13 to 15 days, scale 0 (no effect) to 100 (complete control)) was 98% and the pest or weed control at 250 g/ha ([2]; Ambrosia artemisiifolia, post-emergence, 360 h, Postemergence, 250 g ai/ha, scale 0 to 100 (0 no effect, 100 complete control), read-out: Plant response rating, Ragweed) was 100%. The pest or weed control at 31 g/ha ([2]; Ambrosia artemisiifolia, pre-emergence, 360 h, Preemergence, scale 0 to 100 (0 no effect, 100 complete control), read-out: Plant response rating, Ragweed) was 60%, the pest or weed control at 62 g/ha ([2]; Ambrosia artemisiifolia, pre-emergence, 360 h, Preemergence, 62 g ai/ha, scale 0 to 100 (0 no effect, 100 complete control), read-out: Plant response rating, Ragweed) was 85% and the pest or weed control at 125 g/ha ([2]; Ambrosia artemisiifolia, pre-emergence, 360 h, Preemergence, scale 0 to 100, 0 no effect, 100 complete control, read-out: Plant response rating, Ragweed) was 90%. The “Ragweed plant response rating” value [2, 10] was 90, the “Johnsongrass plant response rating (0 to 100 scale)” value [3, 9] was 10 and the “Johnsongrass plant response rating” value [3, 10] was 90. It also gave a pest or weed control at 31 g/ha ([3]; Sorghum halepense, post-emergence, postemergence, scale 0 to 100, 0 is no effect, 100 is complete control, read-out: Plant response rating, Johnsongrass) of 5%, a pest or weed control at 125 g/ha ([3]; Sorghum halepense, post-emergence, Postemergence, visual rating after 13 to 15 days, scale 0 (no effect) to 100 (complete control)) of 75% and a pest or weed control at 250 g/ha ([3]; Sorghum halepense, post-emergence, Postemergence, 250 g ai/ha, scale 0 to 100 (0 no effect, 100 complete control), read-out: Plant response rating, Johnsongrass) of 100%. The pest or weed control at 31 g/ha ([3]; Sorghum halepense, pre-emergence, Preemergence, scale 0 to 100 (0 no effect, 100 complete control), read-out: Plant response rating, Johnsongrass) was 10%, the pest or weed control at 62 g/ha ([3]; Sorghum halepense, pre-emergence, Preemergence, 62 g ai/ha, scale 0 to 100, 0 no effect, 100 complete control, read-out: Plant response rating, Johnsongrass) was 80% and the pest or weed control at 125 g/ha ([3]; Sorghum halepense, pre-emergence, Preemergence, scale 0 to 100, 0 no effect, 100 complete control, read-out: Plant response rating, Johnsongrass) was 90%. The “Surinam Grass plant response rating (0 to 100 scale)” value [4, 9] was 90, the “Surinam Grass plant response rating” value [4, 10] was 100 and the pest or weed control at 31 g/ha ([4]; Urochloa decumbens, post-emergence, postemergence, scale 0 to 100, 0 is no effect, 100 is complete control, read-out: Plant response rating, Surinam Grass) was 75%. It also gave a pest or weed control at 125 g/ha ([4]; Urochloa decumbens, post-emergence, Postemergence, visual rating after 13 to 15 days, scale 0 (no effect) to 100 (complete control)) of 98%, a pest or weed control at 250 g/ha ([4]; Urochloa decumbens, post-emergence, Postemergence, 250 g ai/ha, scale 0 to 100 (0 no effect, 100 complete control), read-out: Plant response rating, Surinam Grass) of 100% and a pest or weed control at 31 g/ha ([4]; Urochloa decumbens, pre-emergence, Preemergence, scale 0 to 100 (0 no effect, 100 complete control), read-out: Plant response rating, Surinam Grass) of 98%. For the same molecule, the pest or weed control at 62 g/ha ([4]; Urochloa decumbens, pre-emergence, Preemergence, 62 g ai/ha, scale 0 to 100 (0 no effect, 100 complete control), read-out: Plant response rating, Surinam Grass) was 100%, the pest or weed control at 125 g/ha ([4]; Urochloa decumbens, pre-emergence, Preemergence, scale 0 to 100, 0 no effect, 100 complete control, read-out: Plant response rating, Surinam Grass) was 100% and the “Blackgrass plant response rating (0 to 100 scale)” value [5, 9] was 10. For the same molecule, the pest or weed control at 31 g/ha ([5]; Alopecurus myosuroides, post-emergence, 360 h, postemergence, scale 0 to 100, 0 is no effect, 100 is complete control, read-out: Plant response rating, Blackgrass) was 5%, the pest or weed control at 125 g/ha ([5]; Alopecurus myosuroides, post-emergence, 360 h, Postemergence, visual rating after 13 to 15 days, scale 0 (no effect) to 100 (complete control)) was 30% and the pest or weed control at 250 g/ha ([5]; Alopecurus myosuroides, post-emergence, 360 h, Postemergence, 250 g ai/ha, scale 0 to 100 (0 no effect, 100 complete control), read-out: Plant response rating, Blackgrass) was 30%. For the same molecule, the pest or weed control at 31 g/ha ([5]; Alopecurus myosuroides, pre-emergence, 360 h, Preemergence, scale 0 to 100 (0 no effect, 100 complete control), read-out: Plant response rating, Blackgrass) was 0%, the pest or weed control at 62 g/ha ([5]; Alopecurus myosuroides, pre-emergence, 360 h, Preemergence, 62 g ai/ha, scale 0 to 100, 0 no effect, 100 complete control, read-out: Plant response rating, Blackgrass) was 0% and the pest or weed control at 125 g/ha ([5]; Alopecurus myosuroides, pre-emergence, 360 h, Preemergence, scale 0 to 100, 0 no effect, 100 complete control, read-out: Plant response rating, Blackgrass) was 35%. The “Blackgrass plant response rating” value [5, 10] was 35, the “Ryegrass, Italian plant response rating (0 to 100 scale)” value [6, 9] was 5 and the pest or weed control at 31 g/ha ([6]; Lolium multiflorum, post-emergence, postemergence, scale 0 to 100, 0 is no effect, 100 is complete control, read-out: Plant response rating, Ryegrass, Italian) was 0%. The pest or weed control at 125 g/ha ([6]; Lolium multiflorum, post-emergence, Postemergence, visual rating after 13 to 15 days, scale 0 (no effect) to 100 (complete control)) was 45%, the pest or weed control at 250 g/ha ([6]; Lolium multiflorum, post-emergence, Postemergence, 250 g ai/ha, scale 0 to 100 (0 no effect, 100 complete control), read-out: Plant response rating, Ryegrass, Italian) was 55% and the pest or weed control at 31 g/ha ([6]; Lolium multiflorum, pre-emergence, Preemergence, scale 0 to 100 (0 no effect, 100 complete control), read-out: Plant response rating, Ryegrass, Italian) was 0%. For the same molecule, the pest or weed control at 62 g/ha ([6]; Lolium multiflorum, pre-emergence, Preemergence, 62 g ai/ha, scale 0 to 100 (0 no effect, 100 complete control), read-out: Plant response rating, Ryegrass, Italian) was 0%, the pest or weed control at 125 g/ha ([6]; Lolium multiflorum, pre-emergence, Preemergence, scale 0 to 100, 0 no effect, 100 complete control, read-out: Plant response rating, Ryegrass, Italian) was 0% and the “Ryegrass, Italian plant response rating” value [6, 10] was 0. For the same molecule, the “Crabgrass, Large plant response rating (0 to 100 scale)” value [7, 9] was 95, the pest or weed control at 31 g/ha ([7]; Digitaria sanguinalis, post-emergence, postemergence, scale 0 to 100, 0 is no effect, 100 is complete control, read-out: Plant response rating, Crabgrass, Large) was 85% and the pest or weed control at 125 g/ha ([7]; Digitaria sanguinalis, post-emergence, Postemergence, visual rating after 13 to 15 days, scale 0 (no effect) to 100 (complete control)) was 95%. For the same molecule, the pest or weed control at 250 g/ha ([7]; Digitaria sanguinalis, post-emergence, Postemergence, 250 g ai/ha, scale 0 to 100 (0 no effect, 100 complete control), read-out: Plant response rating, Crabgrass, Large) was 98%, the pest or weed control at 31 g/ha ([7]; Digitaria sanguinalis, pre-emergence, Preemergence, scale 0 to 100 (0 no effect, 100 complete control), read-out: Plant response rating, Crabgrass, Large) was 100% and the pest or weed control at 62 g/ha ([7]; Digitaria sanguinalis, pre-emergence, Preemergence, 62 g ai/ha, scale 0 to 100, 0 no effect, 100 complete control, read-out: Plant response rating, Crabgrass, Large) was 100%. The pest or weed control at 125 g/ha ([7]; Digitaria sanguinalis, pre-emergence, Preemergence, scale 0 to 100, 0 no effect, 100 complete control, read-out: Plant response rating, Crabgrass, Large) was 100%, the “Crabgrass, Large plant response rating” value [7, 10] was 100 and the “Soybean plant response rating (0 to 100 scale)” value (soybean (Glycine max); [9]) was 95. The plant injury at 31 g/ha (soybean (Glycine max); Glycine max, post-emergence, 31 g ai/ha, postemergence, scale 0 to 100, 0 is no effect, 100 is complete control, read-out: Plant response rating, Soybean) was 85%, the plant injury at 125 g/ha (soybean (Glycine max); Glycine max, post-emergence, Postemergence, 125 g ai/ha, visual rating after 13 to 15 days, scale 0 (no effect) to 100 (complete control)) was 95% and the plant injury at 250 g/ha (soybean (Glycine max); Glycine max, post-emergence, Postemergence, 250 g ai/ha, scale 0 to 100 (0 no effect, 100 complete control), read-out: Plant response rating, Soybean) was 98%. For the same molecule, the “Bermudagrass plant response rating (0 to 100 scale)” value ([8]; 62 g ai/ha, 0 is no effect, 13 to 15 days) was 85 and the pest or weed control at 31 g/ha ([8]; Cynodon dactylon, post-emergence, 31 g ai/ha, scale 0 to 100, 0 is no effect, read-out: Plant response rating, Bermudagrass) was 85%.
